BindingDB's records for doi:10.3109/14756366.2010.486793 (University of Zimbabwe, 2010)

Target: glutathione S-transferase (Plasmodium falciparum)
Assay: A range of natural products were screened for inhibition of PfGST by GST assay with CDNB as a substrate, using a 96-well SpectraMax 340 microplate spectrophotometer equipped with a kinetics mode (Molecular Devices, California). The final concentration of CDNB was 0.5 mM and of GSH was 1mM. Ethacrynic acid (ETA) and haemin were used as positive controls. The incub

| IC50 [µM] | SMILES |
| --- | --- |
| 8.5 | C=C1C(=O)OC2/C=C(\COC(C)=O)CC/C=C(\CO)CC(OC(C)=O)[C@@H]12 (stereo partly drawn) [JB42C] |
| > 100 | COC(=O)[C@@H]1[C@@H]2C[C@H]3N(C)CC[C@@]34c3ccccc3N(C(C)=O)[C@H]4[C@@H]2CO[C@@H]1C [Malagashanine] |
| 12 | C=Cc1c(OC=O)cc(O)c2c1OC(c1ccc(O)c(O)c1)C(O)C2 (stereo not drawn) [TRAL-1] |
